Entries after “also recorded” stand apart in the source; their conditions may differ. Like-named read-outs stand apart in the source and are kept apart here.
What was measured:
PIK3CA(E542K) = target: T1, PIK3CA(E542K) (Homo sapiens, UniProt P42336, E542K); assay: KINOMEscan; format: binding; conditions: read-out: %Ctrl @ 10000nM
T1 construct: purchased DiscoverX KINOMEscan

FLT3-autoinhibited = target: T2, FLT3-autoinhibited (Homo sapiens, UniProt P36888); assay: KINOMEscan; format: binding; conditions: read-out: %Ctrl @ 10000nM
T2 construct: purchased DiscoverX KINOMEscan

MYLK2 = target: T3, MYLK2 (Homo sapiens, UniProt Q9H1R3); assay: KINOMEscan; format: binding; conditions: read-out: %Ctrl @ 10000nM
T3 construct: purchased DiscoverX KINOMEscan

BMPR2 = target: T4, BMPR2 (Homo sapiens, UniProt Q13873); assay: KINOMEscan; format: binding; conditions: read-out: %Ctrl @ 10000nM
T4 construct: purchased DiscoverX KINOMEscan

PIP5K2C = target: T5, PIP5K2C (Homo sapiens, UniProt Q8TBX8); assay: KINOMEscan; format: binding; conditions: read-out: %Ctrl @ 10000nM
T5 construct: purchased DiscoverX KINOMEscan

EGFR(T790M) = target: T6, EGFR(T790M) (Homo sapiens, UniProt P00533, T790M); assay: KINOMEscan; format: binding; conditions: read-out: %Ctrl @ 10000nM
T6 construct: purchased DiscoverX KINOMEscan

NLK = target: T7, NLK (Homo sapiens, UniProt Q9UBE8); assay: KINOMEscan; format: binding; conditions: read-out: %Ctrl @ 10000nM
T7 construct: purchased DiscoverX KINOMEscan

PDPK1 = target: T8, PDPK1 (Homo sapiens, UniProt O15530); assay: KINOMEscan; format: binding; conditions: read-out: %Ctrl @ 10000nM
T8 construct: purchased DiscoverX KINOMEscan

AURKC = target: T9, AURKC (Homo sapiens, UniProt Q9UQB9); assay: KINOMEscan; format: binding; conditions: read-out: %Ctrl @ 10000nM
T9 construct: purchased DiscoverX KINOMEscan

SGK2 = target: T10, SGK2 (Homo sapiens, UniProt Q9HBY8); assay: KINOMEscan; format: binding; conditions: read-out: %Ctrl @ 10000nM
T10 construct: purchased DiscoverX KINOMEscan

MYLK4 = target: T11, MYLK4 (Homo sapiens, UniProt Q86YV6); assay: KINOMEscan; format: binding; conditions: read-out: %Ctrl @ 10000nM
T11 construct: purchased DiscoverX KINOMEscan

CDC2L5 = target: T12, CDC2L5 (Homo sapiens, UniProt Q14004); assay: KINOMEscan; format: binding; conditions: read-out: %Ctrl @ 10000nM
T12 construct: purchased DiscoverX KINOMEscan

RAF1 = target: T13, RAF1 (Homo sapiens, UniProt P04049); assay: KINOMEscan; format: binding; conditions: read-out: %Ctrl @ 10000nM
T13 construct: purchased DiscoverX KINOMEscan

TGFBR1 = target: T14, TGFBR1 (Homo sapiens, UniProt P36897); assay: KINOMEscan; format: binding; conditions: read-out: %Ctrl @ 10000nM
T14 construct: purchased DiscoverX KINOMEscan

MST1R = target: T15, MST1R (Homo sapiens, UniProt Q04912); assay: KINOMEscan; format: binding; conditions: read-out: %Ctrl @ 10000nM
T15 construct: purchased DiscoverX KINOMEscan

ERK8 = target: T16, ERK8 (Homo sapiens, UniProt Q8TD08); assay: KINOMEscan; format: binding; conditions: read-out: %Ctrl @ 10000nM
T16 construct: purchased DiscoverX KINOMEscan

EIF2AK1 = target: T17, EIF2AK1 (Homo sapiens, UniProt Q9BQI3); assay: KINOMEscan; format: binding; conditions: read-out: %Ctrl @ 10000nM
T17 construct: purchased DiscoverX KINOMEscan

EGFR = target: T18, EGFR (Homo sapiens, UniProt P00533); assay: KINOMEscan; format: binding; conditions: read-out: %Ctrl @ 10000nM
T18 construct: purchased DiscoverX KINOMEscan

MRCKB = target: T19, MRCKB (Homo sapiens, UniProt Q9Y5S2); assay: KINOMEscan; format: binding; conditions: read-out: %Ctrl @ 10000nM
T19 construct: purchased DiscoverX KINOMEscan

C3A cells = assay: Cell growth and macromolecular synthesis; format: cell-based, human; conditions: 10 μM
Description: For quantifying protein, DNA and lipid synthesis, C3A cells were first seeded at 2 × 10^6 in 60 mm-dishes and grown overnight in maintenance medium. Cells were washed once with phosphate buffered saline (PBS) and 2 ml of labeling medium plus radiochemical was added to start the 24 h incubation. […]. […] The labeling medium contained 0.1% dimethylsulfoxide (DMSO; control) or 10 μM compound in 0.1% DMSO. Cells were harvested, washed once with PBS and harvested either by trypsinization and vacuum filtration through 0.45 micron discs (Millipore, HAWP02500) for protein and DNA determinations, or by scraping and extraction in 100 μl H2O + 240 μl methanol/acetic acid 98:2 + 100 μl CHCl3 for lipid determination. Filters were washed three times with PBS, air dried and counted with a Liquid Scintillation Analyzer. Radioactivity was normalized to cell numbers and viability was >95%. Cellular lipid emulsions were separated by centrifugation and the lower phases were quantified by liquid scintillation counting and normalized to cell numbers.
(b) Pathway labeling of C3A cells treated with either DMSO or DMSO […]
[…]. labeled amino acid mixture, DNA synthesis was determined by measuring the incorporation of [3H]thymidine, and lipid synthesis was determined by labeling with [U-14C]glucose and measuring the incorporation of label into the lipid fraction as described in Methods. […]

DCAMKL3 = target: T20, DCAMKL3 (Homo sapiens, UniProt Q9C098); assay: KINOMEscan; format: binding; conditions: read-out: %Ctrl @ 10000nM
T20 construct: purchased DiscoverX KINOMEscan

NEK1 = target: T21, NEK1 (Homo sapiens, UniProt Q96PY6); assay: KINOMEscan; format: binding; conditions: read-out: %Ctrl @ 10000nM
T21 construct: purchased DiscoverX KINOMEscan

[1] = target: T22, RSK2(Kin.Dom.1-N-terminal) (Homo sapiens, UniProt P51812); assay: KINOMEscan; format: binding; conditions: read-out: %Ctrl @ 10000nM
T22 construct: RSK2(Kin.Dom.1-N-terminal); purchased DiscoverX KINOMEscan

[2] = Pharmacokinetics in plasma of male BALB/c mice; format: in vivo; conditions: mouse
Description: Supplementary Table 2. […] Mean pharmacokinetic parameters of PZ- […]
administration to male BALB/c micea.
Dose Tmax C0/ Cmaxc AUClast AUCinf T1/2 CL Vss %Fd […]
aPharmacokinetics measurements performed by Sai Life Sciences Limited. […]
cBack extrapolated concentration for i.v. group. dBioavailability was calculated based on AUClast.

STK36 = target: T23, STK36 (Homo sapiens, UniProt Q9NRP7); assay: KINOMEscan; format: binding; conditions: read-out: %Ctrl @ 10000nM
T23 construct: purchased DiscoverX KINOMEscan

FGFR3(G697C) = target: T24, FGFR3(G697C) (Homo sapiens, UniProt P22607, G697C); assay: KINOMEscan; format: binding; conditions: read-out: %Ctrl @ 10000nM
T24 construct: purchased DiscoverX KINOMEscan

PAMPA = conditions: PAMPA
ERBB3 = target: T25, ERBB3 (Homo sapiens, UniProt P21860); assay: KINOMEscan; format: binding; conditions: read-out: %Ctrl @ 10000nM
T25 construct: purchased DiscoverX KINOMEscan

ROS1 = target: T26, ROS1 (Homo sapiens, UniProt P08922); assay: KINOMEscan; format: binding; conditions: read-out: %Ctrl @ 10000nM
T26 construct: purchased DiscoverX KINOMEscan

ALK(L1196M) = target: T27, ALK(L1196M) (Homo sapiens, UniProt Q9UM73, L1196M); assay: KINOMEscan; format: binding; conditions: read-out: %Ctrl @ 10000nM
T27 construct: purchased DiscoverX KINOMEscan

PCTK1 = target: T28, PCTK1 (Homo sapiens, UniProt Q00536); assay: KINOMEscan; format: binding; conditions: read-out: %Ctrl @ 10000nM
T28 construct: purchased DiscoverX KINOMEscan

T9 sequence (Q9UQB9 whole entry): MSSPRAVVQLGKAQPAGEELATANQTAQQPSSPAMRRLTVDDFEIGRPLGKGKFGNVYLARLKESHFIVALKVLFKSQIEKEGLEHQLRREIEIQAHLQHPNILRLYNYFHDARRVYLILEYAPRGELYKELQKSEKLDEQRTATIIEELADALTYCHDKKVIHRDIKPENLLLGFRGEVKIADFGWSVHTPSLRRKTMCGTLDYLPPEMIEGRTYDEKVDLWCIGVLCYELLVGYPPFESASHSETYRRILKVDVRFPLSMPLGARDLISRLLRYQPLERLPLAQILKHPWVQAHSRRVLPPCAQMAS
T20 sequence (Q9C098 whole entry): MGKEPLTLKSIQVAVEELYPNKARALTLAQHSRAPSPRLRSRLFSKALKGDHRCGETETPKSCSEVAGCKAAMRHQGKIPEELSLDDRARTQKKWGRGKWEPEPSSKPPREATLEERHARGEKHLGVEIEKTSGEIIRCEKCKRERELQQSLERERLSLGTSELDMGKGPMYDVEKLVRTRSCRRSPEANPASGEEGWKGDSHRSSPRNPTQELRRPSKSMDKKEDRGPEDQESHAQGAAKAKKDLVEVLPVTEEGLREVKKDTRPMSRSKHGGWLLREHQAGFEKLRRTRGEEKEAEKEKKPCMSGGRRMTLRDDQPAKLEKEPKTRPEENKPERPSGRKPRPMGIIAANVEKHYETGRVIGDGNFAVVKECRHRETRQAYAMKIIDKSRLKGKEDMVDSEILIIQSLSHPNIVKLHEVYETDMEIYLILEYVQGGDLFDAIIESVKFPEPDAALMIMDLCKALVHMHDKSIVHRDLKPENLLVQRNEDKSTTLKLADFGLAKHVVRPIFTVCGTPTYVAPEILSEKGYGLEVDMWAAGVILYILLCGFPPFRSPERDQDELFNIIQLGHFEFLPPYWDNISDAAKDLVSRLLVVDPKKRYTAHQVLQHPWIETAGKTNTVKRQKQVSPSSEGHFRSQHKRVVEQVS
T10 sequence (Q9HBY8 whole entry): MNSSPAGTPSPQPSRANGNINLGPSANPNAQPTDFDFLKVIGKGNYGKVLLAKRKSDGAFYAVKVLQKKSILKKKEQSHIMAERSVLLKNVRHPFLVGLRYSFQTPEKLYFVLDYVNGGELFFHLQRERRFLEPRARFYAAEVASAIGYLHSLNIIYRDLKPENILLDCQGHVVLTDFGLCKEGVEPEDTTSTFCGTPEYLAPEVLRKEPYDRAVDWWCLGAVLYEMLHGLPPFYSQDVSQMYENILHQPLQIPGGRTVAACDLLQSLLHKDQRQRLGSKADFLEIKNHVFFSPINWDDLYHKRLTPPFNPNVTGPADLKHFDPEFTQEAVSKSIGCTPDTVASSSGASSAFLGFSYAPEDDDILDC
T13 sequence (P04049 whole entry): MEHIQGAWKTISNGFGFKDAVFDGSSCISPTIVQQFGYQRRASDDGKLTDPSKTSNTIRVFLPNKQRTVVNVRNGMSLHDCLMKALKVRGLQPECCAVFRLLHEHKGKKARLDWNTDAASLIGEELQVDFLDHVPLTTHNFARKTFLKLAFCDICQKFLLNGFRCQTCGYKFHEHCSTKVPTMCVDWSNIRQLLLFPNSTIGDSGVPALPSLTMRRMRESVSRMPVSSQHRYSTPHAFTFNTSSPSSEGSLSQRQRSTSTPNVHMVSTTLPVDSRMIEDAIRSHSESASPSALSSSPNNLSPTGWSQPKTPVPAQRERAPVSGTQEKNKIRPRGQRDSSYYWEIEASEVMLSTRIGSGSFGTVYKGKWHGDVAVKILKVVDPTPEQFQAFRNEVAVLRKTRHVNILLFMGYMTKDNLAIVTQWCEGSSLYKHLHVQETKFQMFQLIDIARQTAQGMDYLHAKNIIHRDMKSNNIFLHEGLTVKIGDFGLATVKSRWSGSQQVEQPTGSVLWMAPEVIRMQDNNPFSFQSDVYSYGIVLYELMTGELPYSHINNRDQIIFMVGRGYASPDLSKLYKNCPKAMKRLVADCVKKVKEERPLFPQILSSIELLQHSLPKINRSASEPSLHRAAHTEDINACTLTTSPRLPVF
T22 sequence (P51812 1-397 limits assumed): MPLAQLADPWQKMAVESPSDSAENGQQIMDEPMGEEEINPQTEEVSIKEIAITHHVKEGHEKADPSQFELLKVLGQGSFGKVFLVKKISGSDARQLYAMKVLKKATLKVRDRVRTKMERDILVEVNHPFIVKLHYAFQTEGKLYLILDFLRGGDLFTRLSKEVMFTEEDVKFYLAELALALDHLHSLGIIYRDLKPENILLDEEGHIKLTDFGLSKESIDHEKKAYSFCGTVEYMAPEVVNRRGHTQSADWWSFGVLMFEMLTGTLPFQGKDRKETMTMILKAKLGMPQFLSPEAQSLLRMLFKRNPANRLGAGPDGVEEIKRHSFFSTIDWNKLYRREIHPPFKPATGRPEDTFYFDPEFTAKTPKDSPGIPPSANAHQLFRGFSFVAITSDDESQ
T6 sequence (P00533 25-1210 T790M): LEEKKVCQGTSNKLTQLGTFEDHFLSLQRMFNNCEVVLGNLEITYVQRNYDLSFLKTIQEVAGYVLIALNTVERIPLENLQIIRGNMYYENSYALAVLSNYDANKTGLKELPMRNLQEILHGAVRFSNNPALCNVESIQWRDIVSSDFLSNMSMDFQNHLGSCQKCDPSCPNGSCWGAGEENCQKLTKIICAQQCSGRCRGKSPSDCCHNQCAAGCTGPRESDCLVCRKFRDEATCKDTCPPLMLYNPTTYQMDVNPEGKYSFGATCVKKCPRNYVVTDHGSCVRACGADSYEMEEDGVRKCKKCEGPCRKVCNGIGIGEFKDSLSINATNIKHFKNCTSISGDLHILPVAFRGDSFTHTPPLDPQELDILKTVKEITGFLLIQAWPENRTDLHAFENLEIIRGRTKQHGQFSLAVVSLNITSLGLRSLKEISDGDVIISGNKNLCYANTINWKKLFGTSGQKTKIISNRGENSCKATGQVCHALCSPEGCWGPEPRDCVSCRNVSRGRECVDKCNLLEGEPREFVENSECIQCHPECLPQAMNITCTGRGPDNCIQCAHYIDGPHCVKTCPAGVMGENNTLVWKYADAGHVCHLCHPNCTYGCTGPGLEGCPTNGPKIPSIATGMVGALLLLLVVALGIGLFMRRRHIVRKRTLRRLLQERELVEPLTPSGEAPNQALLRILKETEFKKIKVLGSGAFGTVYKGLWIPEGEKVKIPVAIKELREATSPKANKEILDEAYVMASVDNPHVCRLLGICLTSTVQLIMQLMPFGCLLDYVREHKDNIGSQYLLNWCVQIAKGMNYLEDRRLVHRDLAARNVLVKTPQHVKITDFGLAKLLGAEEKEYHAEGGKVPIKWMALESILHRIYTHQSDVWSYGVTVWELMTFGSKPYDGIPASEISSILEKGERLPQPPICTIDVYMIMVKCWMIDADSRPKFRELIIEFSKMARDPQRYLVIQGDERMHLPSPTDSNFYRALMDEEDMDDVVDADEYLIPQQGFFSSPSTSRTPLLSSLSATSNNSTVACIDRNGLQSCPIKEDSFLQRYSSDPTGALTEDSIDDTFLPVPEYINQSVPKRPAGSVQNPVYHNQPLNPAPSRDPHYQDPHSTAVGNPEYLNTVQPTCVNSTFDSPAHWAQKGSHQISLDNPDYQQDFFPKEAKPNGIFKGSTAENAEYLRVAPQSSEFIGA
T5 sequence (Q8TBX8 whole entry): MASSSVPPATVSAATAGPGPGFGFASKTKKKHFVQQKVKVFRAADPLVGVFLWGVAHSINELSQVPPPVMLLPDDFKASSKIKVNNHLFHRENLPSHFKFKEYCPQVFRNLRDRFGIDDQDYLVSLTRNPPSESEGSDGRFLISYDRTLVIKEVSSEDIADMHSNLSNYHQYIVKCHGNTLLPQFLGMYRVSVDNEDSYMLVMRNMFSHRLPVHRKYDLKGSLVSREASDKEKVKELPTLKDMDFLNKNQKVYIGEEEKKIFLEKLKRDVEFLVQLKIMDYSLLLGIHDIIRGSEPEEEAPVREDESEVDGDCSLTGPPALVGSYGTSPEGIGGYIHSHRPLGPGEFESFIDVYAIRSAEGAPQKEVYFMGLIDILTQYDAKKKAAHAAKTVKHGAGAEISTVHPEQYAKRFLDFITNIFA
T7 sequence (Q9UBE8 whole entry): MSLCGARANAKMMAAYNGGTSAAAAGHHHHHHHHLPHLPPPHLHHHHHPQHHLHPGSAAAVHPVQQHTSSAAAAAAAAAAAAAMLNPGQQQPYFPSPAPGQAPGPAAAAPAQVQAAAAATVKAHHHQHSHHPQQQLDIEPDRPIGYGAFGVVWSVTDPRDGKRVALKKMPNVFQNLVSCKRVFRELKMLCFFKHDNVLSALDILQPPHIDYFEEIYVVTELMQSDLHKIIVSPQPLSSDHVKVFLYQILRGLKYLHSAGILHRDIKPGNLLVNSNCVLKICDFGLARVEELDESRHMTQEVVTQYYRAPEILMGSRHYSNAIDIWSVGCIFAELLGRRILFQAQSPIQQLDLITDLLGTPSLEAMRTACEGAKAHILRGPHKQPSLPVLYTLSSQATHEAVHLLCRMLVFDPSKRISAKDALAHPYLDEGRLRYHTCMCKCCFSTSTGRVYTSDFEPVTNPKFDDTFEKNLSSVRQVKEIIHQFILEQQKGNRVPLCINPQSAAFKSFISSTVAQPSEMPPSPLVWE
T2 sequence (P36888 564-993 limits assumed): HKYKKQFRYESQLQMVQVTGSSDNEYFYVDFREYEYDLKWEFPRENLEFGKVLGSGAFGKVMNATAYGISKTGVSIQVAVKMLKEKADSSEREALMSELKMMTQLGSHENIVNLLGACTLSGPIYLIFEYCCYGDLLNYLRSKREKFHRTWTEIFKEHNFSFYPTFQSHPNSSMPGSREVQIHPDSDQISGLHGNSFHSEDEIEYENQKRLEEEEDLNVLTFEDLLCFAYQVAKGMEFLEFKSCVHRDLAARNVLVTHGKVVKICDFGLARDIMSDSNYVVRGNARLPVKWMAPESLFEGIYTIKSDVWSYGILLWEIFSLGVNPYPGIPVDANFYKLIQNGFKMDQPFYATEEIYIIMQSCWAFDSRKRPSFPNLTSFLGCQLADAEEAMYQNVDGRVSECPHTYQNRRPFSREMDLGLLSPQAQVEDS

For `CC(C)c1ccc(CC(=O)N2CCN(c3ccc(C#N)nn3)CC2)cc1` [PZ-2891, 6-(4-(2-(4-isopropylphenyl)acetyl)piperazin-1-yl)pyridazine-3-carbonitrile], which remaining binding at 10 µM (PIK3CA(E542K)) is on record?
The remaining binding at 10 µM was 64%.

And the remaining binding at 10 µM (FLT3-autoinhibited)?
Its remaining binding at 10 µM is 82%.

And the remaining binding at 10 µM (MYLK2)?
The remaining binding at 10 µM was 98%.

And the remaining binding at 10 µM (BMPR2)?
Its remaining binding at 10 µM is 87%.

And the remaining binding at 10 µM (PIP5K2C)?
The remaining binding at 10 µM was 85%.

What about the remaining binding at 10 µM (EGFR(T790M)) of the same molecule?
Its remaining binding at 10 µM is 78%.

What about the remaining binding at 10 µM (NLK) of the same molecule?
Its remaining binding at 10 µM is 94%.

And the remaining binding at 10 µM (PDPK1)?
The remaining binding at 10 µM was 75%.

And the remaining binding at 10 µM (AURKC)?
Its remaining binding at 10 µM is 94%.

What about the remaining binding at 10 µM (SGK2) of the same molecule?
Its remaining binding at 10 µM is 64%.

What about the remaining binding at 10 µM (MYLK4) of the same molecule?
The remaining binding at 10 µM was 92%.

What about the remaining binding at 10 µM (CDC2L5) of the same molecule?
The remaining binding at 10 µM was 81%.

What about the remaining binding at 10 µM (RAF1) of the same molecule?
The remaining binding at 10 µM was 85%.

And the remaining binding at 10 µM (TGFBR1)?
Its remaining binding at 10 µM is 99%.

What about the remaining binding at 10 µM (MST1R) of the same molecule?
Its remaining binding at 10 µM is 73%.

And the remaining binding at 10 µM (ERK8)?
The remaining binding at 10 µM was 81%.

What about the remaining binding at 10 µM (EIF2AK1) of the same molecule?
Its remaining binding at 10 µM is 95%.

What about the remaining binding at 10 µM (EGFR) of the same molecule?
Its remaining binding at 10 µM is 78%.

What about the remaining binding at 10 µM (MRCKB) of the same molecule?
The remaining binding at 10 µM was 100%.

And the “cell viability (cell growth, synthesis of DNA, protein and lipid)” value (C3A cells)?
The value was “no differences between control and PZ-2891; also recorded: did not impact cell viability”.

What about the remaining binding at 10 µM (DCAMKL3) of the same molecule?
Its remaining binding at 10 µM is 84%.

And the remaining binding at 10 µM (NEK1)?
Its remaining binding at 10 µM is 100%.

And the remaining binding at 10 µM [1]?
The remaining binding at 10 µM was 80%.

What about the half-life ([2]; intravenous, 2 mg/kg, mice plasma, read-out: T1/2 (mice plasma)) of the same molecule?
The half-life was 17 min.

What about the AUC(0-inf) ([2]; plasma, iv, i.v. 2 mg/kg) of the same molecule?
Its AUC(0-inf) is 611 ng·h/mL.

What about the AUC(0-t) ([2]; plasma, iv, i.v. 2 mg/kg) of the same molecule?
The AUC(0-t) was 609 ng·h/mL.

And the clearance ([2]; plasma, iv, i.v. 2 mg/kg)?
The clearance was 54.5 mL/min/kg.

And the C0 ([2]; plasma, iv, i.v. 2 mg/kg, back extrapolated concentration)?
Its C0 is 2810 ng/mL.

What about the half-life ([2]; plasma, iv, i.v. 2 mg/kg, read-out: T1/2 (converted)) of the same molecule?
Its half-life is 16.8 min.

What about the Vd ([2]; plasma, iv, i.v. 2 mg/kg, read-out: Vss) of the same molecule?
Its Vd is 0.94 L/kg.

What about the AUC(0-inf) ([2]; plasma, po, p.o. 10 mg/kg) of the same molecule?
Its AUC(0-inf) is 1420 ng·h/mL.

What about the AUC(0-t) ([2]; plasma, po, p.o. 10 mg/kg) of the same molecule?
The AUC(0-t) was 1400 ng·h/mL.

What about the Cmax ([2]; plasma, po, p.o. 10 mg/kg) of the same molecule?
Its Cmax is 1890 ng/mL.

What about the Tmax ([2]; plasma, po, p.o. 10 mg/kg) of the same molecule?
The Tmax was 15 min.

What about the remaining binding at 10 µM (STK36) of the same molecule?
The remaining binding at 10 µM was 84%.

What about the remaining binding at 10 µM (FGFR3(G697C)) of the same molecule?
Its remaining binding at 10 µM is 99%.

What about the “PAMPA; Avg Pe” value (PAMPA) of the same molecule?
Its value is 413 10-6 cm/s.

What about the remaining binding at 10 µM (ERBB3) of the same molecule?
Its remaining binding at 10 µM is 60%.

And the remaining binding at 10 µM (ROS1)?
Its remaining binding at 10 µM is 81%.

And the remaining binding at 10 µM (ALK(L1196M))?
The remaining binding at 10 µM was 73%.

And the remaining binding at 10 µM (PCTK1)?
The remaining binding at 10 µM was 76%.

Source: PMC6199309, “A therapeutic approach to pantothenate kinase associated neurodegeneration” (Nature Communications, 2018)
